Patent US20080194585A1, “Fungicidal Pyrazine Derivatives” (priority 2005, published 2008)
Marks after values point to notes of the source that are not given here.

Key:
Plasmopara viticola = assay: Test D: grape downy mildew, spray after inoculation of grape seedlings; assay type: in vivo
Excerpt: Upon removal, disease ratings were made. […] A dash (-) indicates no test results.

Phytophthora infestans = assay: whole plant or invertebrate; assay type: in vivo
Septoria tritici = assay: Test J: wheat leaf blotch, preventive spray on wheat seedlings; assay type: in vivo
Excerpt: A dash (-) indicates no test results.

fusarium graminearium = assay: Test I: wheat head scab, preventive spray on wheat seedlings
Method: (the causal agent of wheat head scab) and incubated in a saturated atmosphere at 20° C. for 72 h, and then moved to a growth chamber at 22° C. for 5 days, after which disease ratings were made.

[1] = test system: Puccinia recondita f. sp. tritici; assay: Test K: wheat leaf rust, preventive spray on wheat seedlings
Botrytis cinerea = assay: Test E: tomato botrytis, preventive spray on tomato seedlings
Septoria nodorum = assay: Test H: wheat glum blotch, preventive spray on wheat seedlings
Method: (the causal agent of wheat glum blotch) and incubated in a saturated atmosphere at 20° C. for 48 h, and then moved to a growth chamber at 22° C. for 5 days, after which disease ratings were made.

[2] = test system: Erysiphe graminis f. sp. tritici; assay: Test L: wheat powdery mildew, preventive spray on wheat seedlings
Pythium aphanidermatum = assay: Test A: bluegrass pythium blight, preventive spray on bluegrass seedlings
Rhizoctonia oryzae = assay: Test G: turf brown patch, preventive spray on creeping bent grass seedlings
Method: (the causal agent of turf brown patch) and incubated in a saturated atmosphere at 27° C. for 24 h, and then moved to a growth chamber at 27° C. for 5 days, after which disease ratings were made.

[3] = test system: Colletotrichum orbiculare; assay: Test B: cucumber Colletotrichum anthracnose, preventive spray on cucumber seedlings

SMILES	Test D disease control rating (Plasmopara viticola; 40 ppm (*))	Test F disease control rating (Phytophthora infestans; 40 ppm (*))	Test J disease control rating (Septoria tritici; 40 ppm (*))	Test I disease control rating (fusarium graminearium; 40 ppm (*))	Test K disease control rating ([1]; 40 ppm (*))	Test E disease control rating (Botrytis cinerea; 40 ppm (*))	Test H disease control rating (Septoria nodorum; 40 ppm (*))	Test L disease control rating ([2]; 40 ppm (*))	Test A disease control rating (Pythium aphanidermatum; 40 ppm (*))	Test G disease control rating (Rhizoctonia oryzae; 40 ppm (*))	Test B disease control rating ([3]; 40 ppm (*))	other results
N#Cc1nc(Cl)c(-c2c(F)cccc2F)n(Cc2ccco2)c1=O [compound 189]	0* %	0* %	15* %	0* %	0* %	0* %	0* %	0* %	0* %	0* %	0* %	
CC(C)Cn1c(-c2c(F)cccc2F)c(Cl)nc(-c2cnc3ccccn23)c1=O [compound 190]												Test D disease control rating (Plasmopara viticola; 200 ppm): 0%; Test F disease control rating (Phytophthora infestans; 200 ppm): 0%; Test J disease control rating (Septoria tritici; 200 ppm): 0%; Test I disease control rating (fusarium graminearium; 200 ppm): 0%; Test K disease control rating ([1]; 200 ppm): 0%; Test E disease control rating (Botrytis cinerea; 200 ppm): 0%; Test H disease control rating (Septoria nodorum; 200 ppm): 0%; Test L disease control rating ([2]; 200 ppm): 0%; Test A disease control rating (Pythium aphanidermatum; 200 ppm): 0%; Test G disease control rating (Rhizoctonia oryzae; 200 ppm): 0%; Test B disease control rating ([3]; 200 ppm): 0%
CCC(C)Cn1c(-c2c(F)cccc2F)c(Cl)nc(-n2nccn2)c1=O (stereo not drawn) [compound 191]												Test D disease control rating (Plasmopara viticola; 200 ppm): 0%; Test F disease control rating (Phytophthora infestans; 200 ppm): 0%; Test J disease control rating (Septoria tritici; 200 ppm): 36%; Test I disease control rating (fusarium graminearium; 200 ppm): 0%; Test K disease control rating ([1]; 200 ppm): 86%; Test E disease control rating (Botrytis cinerea; 200 ppm): 97%; Test H disease control rating (Septoria nodorum; 200 ppm): 0%; Test L disease control rating ([2]; 200 ppm): 0%; Test A disease control rating (Pythium aphanidermatum; 200 ppm): 0%; Test G disease control rating (Rhizoctonia oryzae; 200 ppm): 0%; Test B disease control rating ([3]; 200 ppm): 0%
CC(C)Cn1c(-c2ccccc2Cl)c(Cl)nc(-n2cncn2)c1=O [compound 192]	0* %	0* %	98* %	0* %	89* %	99* %	0* %	0* %	0* %	31* %	0* %	
CC(C)Cn1c(-c2ccccc2Cl)c(Cl)nc(-n2cccn2)c1=O [compound 193]	17* %	0* %	99* %	0* %	100* %	100* %	89* %	68* %	0* %	33* %	29* %	
CC(C)Cn1c(-c2ccccc2Br)c(Cl)nc(-n2cncn2)c1=O [compound 194]	0* %	0* %	88* %	0* %	92* %	95* %	0* %	0* %	0* %	0* %	0* %	
CC(C)Cn1c(-c2ccccc2Br)c(Cl)nc(-n2cccn2)c1=O [compound 195]	0* %	0* %	100* %	0* %	100* %	99* %	87* %	0* %	0* %	47* %	26* %	
CCc1ccccc1-c1c(Cl)nc(-n2cncn2)c(=O)n1CC(C)C [compound 196]	0* %	0* %	0* %	44* %	0* %	0* %	0* %	0* %	0* %	0* %	0* %	
CCc1ccccc1-c1c(Cl)nc(-n2cccn2)c(=O)n1CC(C)C [compound 197]	0* %	0* %	23* %	0* %	0* %	41* %	0* %	0* %	0* %	16* %	0* %	
